According to patent publication US10195147B1, “Dry powder compositions with magnesium stearate” (OTITOPIC INC., priority 2017, dated 2019):
Values joined by “and” are separate entries in the source; they are usually repeats but may differ in a detail not shown here. Equal entries are not always repeated.

Experiments:
Format in all cases: physicochemical
[1] = Colloid-probe atomic force microscopy, force of cohesion; conditions: five drug probes per formulation against smooth crystalline aspirin surface
From the text: Colloid-probe atomic force microscopy studies (AFM) was used to measure the cohesive surface interfacial forces (FIG. 6). Five individual particles from each of powder formulation was attached to tipless cantilevers. These were designated as drug probes, which were then interacted with a smooth surface of crystalline aspirin. In this way, it was possible to measure the force of cohesion of the particles of the different formulations (FIG. 6), which followed the following rank order: […]

[2] = Particle size distribution by Spraytec using low resistance device; conditions: 90 L/min, 2.7 second actuation, 5 tests
Experimental: Particle size distribution of ASA/MgST dry powder composition with 0.5%, 1%, 5%, and 10% w/w MgST, spray-dried Aspirin 85%/Leucine 15% Formulation (036 or 36)>Aspirin 95%/Leucine 5% Formulation (046 or 46), and micronized ASA were measured by Spraytec using low resistance device, at 90 L/min flow rate with 2.7 second actuation time with a step of device/mouthpiece/USP/throat/IC/DUSA, and 5 tests for each composition (Table 5E).

[3] = NGI data of the NGI v. Spraytec comparison; conditions: Table 5F

CC(=O)Oc1ccccc1C(=O)O [Micronized ASA, acetylsalicylic acid]
force of cohesion, rank order [1]: >ASA co-micronised with 0.5% magnesium stearate | % V < 5 μm [2]: 54.7 (3.15) % | % V < 10 μm [2]: 88.99 (2.05) % | Dv(10) [2]: 1.9 (0.08) μm | Dv(50) [2]: 4.63 (0.24) μm and 4.62 (0.24) μm | Dv(90) [2]: 10.32 (0.65) μm | NGI FPF [3]: 20.71% | NGI MMAD [3]: 4.86 μm
